Test results taken from publication PMC5926742 (Japanese Journal of Cancer Research : Gann, 2001).

Target: DNA polymerase β (Bos taurus, UniProt Q27958)
Test: [methyl-3H]TTP incorporation into activated DNA, DE81 paper disc
Type: biochemical

| SMILES | IC50 [µM] |
| --- | --- |
| Nc1ccn([C@H]2CC[C@@H](COP(=O)(O)OP(=O)(O)OP(=O)(O)O)O2)c(=O)n1 [ddCTP] | 240 |
| Nc1ccn([C@@H]2O[C@H](COP(=O)(O)OP(=O)(O)OP(=O)(O)O)[C@@H](O)C2(F)F)c(=O)n1 [dFdCTP] | 450 |
